Experimental data published in patent publication US10344060B2 (priority 2013, dated 2019).

target: hNav1.7 (Homo sapiens, UniProt Q15858); test: cell-based; type: cell-based; conditions: Table 12; PatchXpress, tonic block; read-out: PX hNav1.7 Tonic IC50
Sequence (Q15858 whole entry): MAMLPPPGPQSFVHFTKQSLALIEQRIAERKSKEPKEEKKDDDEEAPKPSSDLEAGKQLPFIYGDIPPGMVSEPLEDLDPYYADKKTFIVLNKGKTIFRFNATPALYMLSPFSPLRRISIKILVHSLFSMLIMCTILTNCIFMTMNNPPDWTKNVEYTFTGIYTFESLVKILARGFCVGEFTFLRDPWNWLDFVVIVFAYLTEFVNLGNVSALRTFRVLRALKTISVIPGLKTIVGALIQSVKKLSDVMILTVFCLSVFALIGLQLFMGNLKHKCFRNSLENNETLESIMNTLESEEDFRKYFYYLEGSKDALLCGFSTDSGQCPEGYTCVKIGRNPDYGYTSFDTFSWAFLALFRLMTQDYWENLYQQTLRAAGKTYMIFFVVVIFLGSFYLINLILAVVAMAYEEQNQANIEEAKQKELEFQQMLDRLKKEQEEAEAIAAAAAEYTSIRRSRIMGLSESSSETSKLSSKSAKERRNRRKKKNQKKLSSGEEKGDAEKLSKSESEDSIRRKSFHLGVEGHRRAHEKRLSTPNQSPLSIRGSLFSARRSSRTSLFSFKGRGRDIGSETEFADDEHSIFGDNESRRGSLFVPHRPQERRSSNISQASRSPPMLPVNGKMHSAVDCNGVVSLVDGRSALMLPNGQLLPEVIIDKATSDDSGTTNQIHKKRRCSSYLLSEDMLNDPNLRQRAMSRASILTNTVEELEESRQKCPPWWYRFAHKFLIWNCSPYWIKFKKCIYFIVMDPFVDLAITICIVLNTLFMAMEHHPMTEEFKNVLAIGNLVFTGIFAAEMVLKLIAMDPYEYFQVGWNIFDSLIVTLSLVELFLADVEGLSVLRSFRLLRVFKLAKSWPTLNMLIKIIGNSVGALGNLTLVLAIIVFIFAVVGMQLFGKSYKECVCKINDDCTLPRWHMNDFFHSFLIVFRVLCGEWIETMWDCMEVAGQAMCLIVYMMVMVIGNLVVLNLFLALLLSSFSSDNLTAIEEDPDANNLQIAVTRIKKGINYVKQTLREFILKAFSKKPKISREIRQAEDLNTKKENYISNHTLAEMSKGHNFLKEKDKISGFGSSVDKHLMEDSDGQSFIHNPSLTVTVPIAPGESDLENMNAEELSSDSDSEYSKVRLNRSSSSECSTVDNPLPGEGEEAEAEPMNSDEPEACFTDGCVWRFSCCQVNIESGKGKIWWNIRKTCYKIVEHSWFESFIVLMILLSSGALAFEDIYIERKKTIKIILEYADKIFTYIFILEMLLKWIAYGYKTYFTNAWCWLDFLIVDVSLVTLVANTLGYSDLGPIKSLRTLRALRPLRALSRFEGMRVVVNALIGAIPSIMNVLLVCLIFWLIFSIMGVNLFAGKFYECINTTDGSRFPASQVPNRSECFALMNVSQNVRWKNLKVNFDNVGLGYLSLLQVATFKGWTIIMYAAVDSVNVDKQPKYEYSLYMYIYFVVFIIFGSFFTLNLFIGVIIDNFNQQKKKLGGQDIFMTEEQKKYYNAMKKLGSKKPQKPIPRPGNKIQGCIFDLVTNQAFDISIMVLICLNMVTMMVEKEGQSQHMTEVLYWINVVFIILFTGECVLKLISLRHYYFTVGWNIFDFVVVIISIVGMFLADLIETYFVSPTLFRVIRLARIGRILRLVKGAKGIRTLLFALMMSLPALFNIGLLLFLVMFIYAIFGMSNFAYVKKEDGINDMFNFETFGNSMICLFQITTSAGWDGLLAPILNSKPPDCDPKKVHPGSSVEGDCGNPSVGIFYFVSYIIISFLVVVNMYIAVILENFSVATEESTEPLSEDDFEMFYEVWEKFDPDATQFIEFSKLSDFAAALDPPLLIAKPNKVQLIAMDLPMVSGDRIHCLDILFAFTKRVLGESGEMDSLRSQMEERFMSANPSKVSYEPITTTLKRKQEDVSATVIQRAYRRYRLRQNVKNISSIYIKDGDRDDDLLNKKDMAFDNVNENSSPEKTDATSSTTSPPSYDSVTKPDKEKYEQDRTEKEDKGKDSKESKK

`C#CC[C@H](N)C(=O)N[C@@H](Cc1ccc(O)cc1)C(=O)N[C@H]1CSSC[C@@H]2NC(=O)[C@@H]3CSSC[C@@H](C(=O)N[C@@H](CCCNC(=N)N)C(=O)N[C@@H](CCCCN)C(=O)N[C@@H](CCC(=O)O)C(=O)N[C@H](C(=O)N[C@@H](CCC(=O)O)C(N)=O)[C@@H](C)CC)NC(=O)[C@H](Cc4c[nH]c5ccccc45)NC(=O)[C@H](CC(C)C)NC(=O)[C@H](CCCCN)NC(=O)[C@H](CSSC[C@H](NC(=O)[C@H]([C@@H](C)O)NC(=O)[C@H](Cc4c[nH]c5ccccc45)NC(=O)[C@H](CCCC)NC(=O)[C@H](Cc4c[nH]c5ccccc45)NC(=O)[C@H](CCCCN)NC(=O)[C@H](CCC(N)=O)NC1=O)C(=O)N[C@@H](CC(=O)O)C(=O)N[C@@H](CO)C(=O)N[C@@H](CCCCN)C(=O)N[C@@H](CCCNC(=N)N)C(=O)N[C@@H](C)C(=O)N3)NC(=O)[C@H](CCCNC(=N)N)NC(=O)[C@H](CC(C)C)NC(=O)CNC(=O)[C@H](CCC(=O)O)NC2=O` [compound 726] was tested. Which IC50 did it give?
The IC50 was 32.4 nM.

How did the IC50 turn out when `C#CC[C@H](N)C(=O)N[C@@H](Cc1ccc(O)cc1)C(=O)N[C@H]1CSSC[C@@H]2NC(=O)[C@@H]3CSSC[C@@H](C(=O)N[C@@H](CCCNC(=N)N)C(=O)N[C@@H](CCCCN)C(=O)N[C@@H](CCC(=O)O)C(=O)N[C@H](C(N)=O)[C@@H](C)CC)NC(=O)[C@H](Cc4c[nH]c5ccccc45)NC(=O)[C@H](CC(C)C)NC(=O)[C@H](CCCCN)NC(=O)[C@H](CSSC[C@H](NC(=O)[C@H]([C@@H](C)O)NC(=O)[C@H](Cc4ccc5ccccc5c4)NC(=O)[C@H](CCCC)NC(=O)[C@H](Cc4c[nH]c5ccccc45)NC(=O)[C@H](CCCCN)NC(=O)[C@H](CCC(N)=O)NC1=O)C(=O)N[C@@H](CC(=O)O)C(=O)N[C@@H](CO)C(=O)N[C@@H](CCCCN)C(=O)N[C@@H](CCCNC(=N)N)C(=O)N[C@@H](C)C(=O)N3)NC(=O)[C@H](CCCNC(=N)N)NC(=O)[C@H](CC(C)C)NC(=O)CNC(=O)[C@H](CCC(=O)O)NC2=O` [compound 847] was run?
The IC50 was 470 nM.

With `C#CC[C@@H]1NC(=O)[C@@H]2CSSC[C@H](NC(=O)[C@@H](N)CC#N)C(=O)N[C@@H](CCC(N)=O)C(=O)N[C@@H](CCCCN)C(=O)N[C@@H](Cc3c[nH]c4ccccc34)C(=O)N[C@@H](CCCC)C(=O)N[C@@H](Cc3c[nH]c4ccccc34)C(=O)N[C@@H]([C@@H](C)O)C(=O)N[C@H]3CSSC[C@H](NC(=O)[C@H](CCCNC(=N)N)NC(=O)[C@H](CC(C)C)NC(=O)CNC1=O)C(=O)N[C@@H](CCC(N)=O)C(=O)N[C@@H](CC(C)C)C(=O)N[C@@H](Cc1c[nH]c4ccccc14)C(=O)N[C@H](C(=O)N[C@@H](CCCNC(=N)N)C(=O)N[C@@H](CCCCN)C(=O)N[C@@H](CCC(=O)O)C(=O)N[C@H](C(N)=O)[C@@H](C)CC)CSSC[C@H](NC(=O)[C@H](C)NC(=O)[C@H](CCCNC(=N)N)NC(=O)[C@H](CCCCN)NC(=O)[C@H](CO)NC(=O)[C@H](CC(=O)O)NC3=O)C(=O)N2` [compound 1680] as the compound, how does the IC50 read?
The IC50 was 47.6 nM.

`C#CC[C@H](N)C(=O)N[C@@H](Cc1ccc(O)cc1)C(=O)N[C@H]1CSSC[C@@H]2NC(=O)[C@@H]3CSSC[C@@H](C(=O)N[C@@H](CCCNC(=N)N)C(=O)N[C@@H](CCCCN)C(=O)N[C@@H](CCC(=O)O)C(=O)N[C@H](C(N)=O)[C@@H](C)CC)NC(=O)[C@H](Cc4cccc5ccccc45)NC(=O)[C@H](CC(C)C)NC(=O)[C@H](CCCCN)NC(=O)[C@H](CSSC[C@H](NC(=O)[C@H]([C@@H](C)O)NC(=O)[C@H](Cc4c[nH]c5ccccc45)NC(=O)[C@H](CCCC)NC(=O)[C@H](Cc4c[nH]c5ccccc45)NC(=O)[C@H](CCCCN)NC(=O)[C@H](CCC(N)=O)NC1=O)C(=O)N[C@@H](CC(=O)O)C(=O)N[C@@H](CO)C(=O)N[C@@H](CCCCN)C(=O)N[C@@H](CCCNC(=N)N)C(=O)N[C@@H](C)C(=O)N3)NC(=O)[C@H](CCCNC(=N)N)NC(=O)[C@H](CC(C)C)NC(=O)CNC(=O)[C@H](CCC(=O)O)NC2=O` [compound 851] was tested. Which IC50 did it give?
Its IC50 is 32 nM.

same assay, conditions: ratio of PX tonic IC50 values; Table 11

For `CCCC[C@@H]1NC(=O)[C@H](CO)NC(=O)[C@H](CC(=O)O)NC(=O)[C@@H]2CSSC[C@@H]3NC(=O)[C@H](CCCNC(=N)N)NC(=O)[C@H](CC(C)C)NC(=O)CNC(=O)[C@H](CCCCNC(=O)CCOCCOCCOCCOCCOCCOCCOCCOCCOCCOCCOCCOCCN)NC(=O)[C@H](CSSC[C@H](NC(=O)[C@H](Cc4ccc(O)cc4)NC(=O)[C@@H](N)CC#N)C(=O)N[C@@H](CCC(N)=O)C(=O)N[C@@H](CCCCN)C(=O)N[C@@H](Cc4c[nH]c5ccccc45)C(=O)N[C@@H](CCCC)C(=O)N[C@@H](Cc4c[nH]c5ccccc45)C(=O)N[C@@H]([C@@H](C)O)C(=O)N2)NC(=O)[C@H](CSSC[C@@H](C(=O)N[C@@H](CCCNC(=N)N)C(=O)N[C@@H](CCCCN)C(=O)N[C@@H](CCC(=O)O)C(=O)N[C@H](C(N)=O)[C@@H](C)CC)NC(=O)[C@H](Cc2c[nH]c4ccccc24)NC(=O)[C@H](CC(C)C)NC(=O)[C@H](CCCCN)NC3=O)NC(=O)[C@H](C)NC(=O)[C@H](CCCNC(=N)N)NC1=O` [compound 561], which Nav1.4/Nav1.7 is on record?
Its Nav1.4/Nav1.7 is 33.

`CC[C@H](C)[C@H](NC(=O)[C@H](Cc1ccc(O)cc1)NC(=O)[C@H](CCCCN)NC(=O)[C@H](CCCNC(=N)N)NC(=O)[C@@H]1CSSC[C@@H]2NC(=O)[C@H](C)NC(=O)[C@H](CCCNC(=N)N)NC(=O)[C@H](CCCCN)NC(=O)[C@H](CO)NC(=O)[C@H](CC(=O)O)NC(=O)[C@@H]3CSSC[C@H](NC(=O)[C@H](CCC(=O)O)NC(=O)[C@H](CC(C)C)NC(=O)CNC(=O)[C@H](CCC(=O)O)NC(=O)[C@H](CSSC[C@H](NC(=O)[C@@H](N)CCC(=O)O)C(=O)N[C@@H](CCC(N)=O)C(=O)N[C@@H](CCCCN)C(=O)N[C@@H](Cc4c[nH]c5ccccc45)C(=O)N[C@@H](CCSC)C(=O)N[C@@H](Cc4c[nH]c5ccccc45)C(=O)N[C@@H]([C@@H](C)O)C(=O)N3)NC2=O)C(=O)N[C@@H](CCCCN)C(=O)N[C@@H](CC(C)C)C(=O)N[C@@H](Cc2c[nH]c3ccccc23)C(=O)N1)C(N)=O` [compound 277] was tested. Which Nav1.4/Nav1.7 did it give?
Its Nav1.4/Nav1.7 is 171.

What about the Nav1.5/Nav1.7 of the same compound?
Its Nav1.5/Nav1.7 is over 1818.

For `CCCC[C@@H]1NC(=O)[C@H](Cc2c[nH]c3ccccc23)NC(=O)[C@H](CCCCN)NC(=O)[C@H](CCC(N)=O)NC(=O)[C@@H](NC(=O)[C@H](Cc2ccc(O)cc2)NC(=O)[C@H](CC(C)C)NC)CSSC[C@@H]2NC(=O)[C@@H]3CSSC[C@@H](C(=O)N[C@@H](CCCNC(=N)N)C(=O)N[C@@H](CCCCN)C(=O)N[C@@H](CCC(=O)O)C(=O)N[C@H](C(N)=O)[C@@H](C)CC)NC(=O)[C@H](Cc4c[nH]c5ccccc45)NC(=O)[C@H](CC(C)C)NC(=O)[C@H](CCCCN)NC(=O)[C@H](CSSC[C@H](NC(=O)[C@H]([C@@H](C)O)NC(=O)[C@H](Cc4c[nH]c5ccccc45)NC1=O)C(=O)N[C@@H](CC(=O)O)C(=O)N[C@@H](CO)C(=O)N[C@@H](CCCCN)C(=O)N[C@@H](CCCNC(=N)N)C(=O)N[C@@H](C)C(=O)N3)NC(=O)[C@H](CCCNC(=N)N)NC(=O)[C@H](CC(C)C)NC(=O)CNC(=O)[C@H](CCCCNC(=O)CCOCCOCCOCCOCCOCCOCCOCCOCCOCCOCCOCCOCCN)NC2=O` [compound 466], which Nav1.4/Nav1.7 is on record?
The Nav1.4/Nav1.7 was 19.

With `CCCC[C@@H]1NC(=O)[C@H](Cc2c[nH]c3ccccc23)NC(=O)[C@H](CCCCN)NC(=O)[C@H](CCC(N)=O)NC(=O)[C@@H](NC(=O)[C@H](Cc2ccc(O)cc2)NC(=O)[C@H](N)Cc2ccccc2)CSSC[C@@H]2NC(=O)[C@@H]3CSSC[C@@H](C(=O)N[C@@H](CCCNC(=N)N)C(=O)N[C@@H](CCCCN)C(=O)N[C@H](C(=O)N[C@H](C(N)=O)[C@@H](C)CC)[C@@H](C)CC)NC(=O)[C@H](Cc4c[nH]c5ccccc45)NC(=O)[C@H](CC(C)C)NC(=O)[C@H](CCCCN)NC(=O)[C@H](CSSC[C@H](NC(=O)[C@H]([C@@H](C)O)NC(=O)[C@H](Cc4c[nH]c5ccccc45)NC1=O)C(=O)N[C@@H](CC(=O)O)C(=O)N[C@@H](CO)C(=O)N[C@@H](CCCCN)C(=O)N[C@@H](CCCNC(=N)N)C(=O)N[C@@H](C)C(=O)N3)NC(=O)[C@H](CCCNC(=N)N)NC(=O)[C@H](CC(C)C)NC(=O)CNC(=O)[C@H](CCC(=O)O)NC2=O` [compound 374] as the compound, how does the Nav1.4/Nav1.7 read?
The Nav1.4/Nav1.7 was 19.

And the Nav1.5/Nav1.7?
The Nav1.5/Nav1.7 was 1757.

For `CCCC[C@@H]1NC(=O)[C@H](Cc2c[nH]c3ccccc23)NC(=O)[C@H](CCCCN)NC(=O)[C@H](CCC(N)=O)NC(=O)[C@@H](NC(=O)[C@H](Cc2ccc(O)cc2)NC(=O)[C@@H](N)CCCCNC(=O)CCOCCOCCOCCOCCOCCOCCOCCOCCOCCOCCOCCOCCN)CSSC[C@@H]2NC(=O)[C@@H]3CSSC[C@@H](C(=O)N[C@@H](CCCNC(=N)N)C(=O)N[C@@H](CCCCN)C(=O)N[C@@H](CCC(=O)O)C(=O)N[C@@H](Cc4c[nH]c5ccccc45)C(N)=O)NC(=O)[C@H](Cc4c[nH]c5ccccc45)NC(=O)[C@H](CC(C)C)NC(=O)[C@H](CCCCN)NC(=O)[C@H](CSSC[C@H](NC(=O)[C@H]([C@@H](C)O)NC(=O)[C@H](Cc4c[nH]c5ccccc45)NC1=O)C(=O)N[C@@H](CC(=O)O)C(=O)N[C@@H](CO)C(=O)N[C@@H](CCCCN)C(=O)N[C@@H](CCCNC(=N)N)C(=O)N[C@@H](C)C(=O)N3)NC(=O)[C@H](CCCNC(=N)N)NC(=O)[C@H](CC(C)C)NC(=O)CNC(=O)[C@H](CCC(=O)O)NC2=O` [compound 458], which Nav1.4/Nav1.7 is on record?
The Nav1.4/Nav1.7 was 38.

What about the Nav1.5/Nav1.7 of the same compound?
Its Nav1.5/Nav1.7 is 202.

With `CCCC[C@@H]1NC(=O)[C@H](Cc2c[nH]c3ccccc23)NC(=O)[C@H](CCCCN)NC(=O)[C@H](CCC(N)=O)NC(=O)[C@@H](NC(=O)[C@H](Cc2ccc(O)cc2)NC(=O)[C@@H](N)CC#N)CSSC[C@@H]2NC(=O)[C@@H]3CSSC[C@@H](C(=O)N[C@@H](CCCNC(=N)N)C(=O)N[C@@H](CCCCN)C(=O)N[C@@H](CCC(=O)O)C(=O)N[C@@H](Cc4c[nH]c5ccccc45)C(N)=O)NC(=O)[C@H](Cc4c[nH]c5ccccc45)NC(=O)[C@H](CC(C)C)NC(=O)[C@H](CCCCN)NC(=O)[C@H](CSSC[C@H](NC(=O)[C@H]([C@@H](C)O)NC(=O)[C@H](Cc4c[nH]c5ccccc45)NC1=O)C(=O)N[C@@H](CC(=O)O)C(=O)N[C@@H](CO)C(=O)N[C@@H](CCCCN)C(=O)N[C@@H](CCCNC(=N)N)C(=O)N[C@@H](C)C(=O)N3)NC(=O)[C@H](CCCNC(=N)N)NC(=O)[C@H](CC(C)C)NC(=O)CNC(=O)[C@H](CCCCNC(=O)CCOCCOCCOCCOCCOCCOCCOCCOCCOCCOCCOCCOCCN)NC2=O` [compound 459] as the compound, how does the Nav1.4/Nav1.7 read?
The Nav1.4/Nav1.7 was 27.
